According to ChEMBL document CHEMBL1144096, “New phenanthrene derivatives from maxillaria densa(1)” (J Nat Prod, 1999):

Test system: Ileum
Assay: Inhibition of rat ileum contraction
Assay type: functional, tissue-based

`COc1ccc(Cc2nccc3cc(OC)c(OC)cc23)cc1OC` [PAPAVERINE] was tested, and the IC50 was 1.55 µM.
